# Data as given in patent US8859465B2, “Synergistic herbicidal composition containing penoxsulam and glufosinate-ammonium” (Dow AgroSciences LLC, priority 2011, dated 2014).
# How the values were obtained:
# Assay type in all cases: in vivo
# [1] = test system: monochoria (Monochoria vaginalis, MOOVA); assay: Postemergence herbicidal activity of mixtures under field conditions in wet-seeded rice, MOOVA; details: 14 DAA
# Experimental: (§1) Evaluation of Postemergence Herbicidal Activity of Mixtures under Field Conditions Methodology
# (§2) Field trials were conducted in rice using standard herbicide small plot research methodology. Plot size was 2 square meters (m^2) using 1.6 meter (m) diameter rings placed into the rice paddy soil with capability for flooding to maintain good rice cultural practices and rice growing conditions. There were 3 replicates per treatment. Rice was Japonica type that was sown as wet-seeded rice (pre-germinated) into the saturated soil in the rings as per normal cultural practices. The rice crop was grown using normal cultural practices for fertilization, seeding, watering, flooding and maintenance to ensure good growth of the crop and the weeds under seeded rice conditions in Taiwan. Ring plot water conditions were maintained under saturated soil conditions after planting. Just prior to treatment application, any remaining plot water was drained to maintain saturated soil in ring plot. Treatments were applied by backpack using compressed air at 30 pounds per square inch (psi) using Flat Fan nozzles at a spray volume of 450 Liters/hectare (L/ha). Penoxsulam was applied as the Fencer® 25OD formulation. Glufosinate-ammonium was applied as the Basta® 135 SL formulation.
# (§3) All treatments in the field trials were applied by spraying the treatments on the rice and weeds and evaluated at 7, 14, or 28 days after application (DAA). Commercially available products of penoxsulam (FENCER 25OD) and glufosinate-ammonium (BASTA 135 SL) were mixed in water and sprayed onto the rice and weeds with the appropriate formulated product amounts to treat 2 m^2 to achieve the desired application rates based on unit area of application (hectare).
# The treated and control plots were rated blind at various intervals after application, with the last evaluation taken 28 days after application. Ratings were based on percent (%) visual weed control, where 0 corresponds to no control and 100 corresponds to complete control. […]
# [2] = test system: smallflower umbrella sedge (Cyperus difformis, CYPDI); assay: Postemergence herbicidal activity of mixtures under field conditions in wet-seeded rice, CYPDI; details: 14 DAA
# Experimental: as §1, §2, §3
# (§4) The treated and control plots were rated blind at various intervals after application, with the last evaluation taken 28 days after application. Ratings were based on percent (%) visual weed control, where 0 corresponds to no control and 100 corresponds to complete control.
# (§5) Colby's equation was used to determine the herbicidal effects expected from the mixtures (Colby, S. R. Calculation of the synergistic and antagonistic response of herbicide combinations. Weeds 1967 15, 20-22). Results are shown where P<0.05 according to Colby's method of analysis.
# (§6) The following equation was used to calculate the expected activity of mixtures containing two active ingredients, A and B: Expected=A+B−(A×B/100)
# (§7) A=observed efficacy of active ingredient A at the same concentration as used in the mixture;
# (§8) B=observed efficacy of active ingredient B at the same concentration as used in the mixture.
# [3] = test system: barnyardgrass (Echinochloa crus-galli, ECHCG); assay: Postemergence herbicidal activity of mixtures under field conditions in wet-seeded rice, ECHCG
# Experimental: as §1, §2, §3, §4, §5, §6, §7, §8
# [4] = test system: Japanese bulrush (Schoenoplectus juncoides, SCPJU); assay: Postemergence herbicidal activity of mixtures under field conditions in wet-seeded rice, SCPJU
# Experimental: as §1, §2, §3, §4, §5, §6, §7, §8
# [5] = 28 DAA, penoxsulam 5 grams ai/ha
# [6] = glufosinate-ammonium 70 grams ai/ha
# [7] = 28 DAA, glufosinate-ammonium 35 grams ai/ha
# [8] = 28 DAA, glufosinate-ammonium 70 grams ai/ha
# [9] = 28 DAA, glufosinate-ammonium 140 grams ai/ha
compound,measurement,setting,value
"COc1cnc(OC)n2nc(NS(=O)(=O)c3c(OCC(F)F)cccc3C(F)(F)F)nc12 [Penoxsulam, 2-(2,2-difluoroethoxy)-N-(5,8-dimethoxy-[1,2,4]triazolo[1,5-c]pyrimidin-2-yl)-6-(trifluoromethyl)benzenesulfonamide]",MOOVA (% Control) Obs,[1]; penoxsulam 5 grams ai/ha,37%
same,CYPDI (% Control) Obs,[2]; penoxsulam 5 grams ai/ha,73%
same,ECHCG (% Control) Obs,"[3]; 14 DAA, penoxsulam 5 grams ai/ha",53%
same,ECHCG (% Control) Obs,"[3]; 14 DAA, penoxsulam 10 grams ai/ha",62%
same,ECHCG (% Control) Obs,[3]; [5],30%
same,ECHCG (% Control) Obs,"[3]; 28 DAA, penoxsulam 10 grams ai/ha",42%
same,ECHCG (% Control) Obs,"[3]; 28 DAA, penoxsulam 20 grams ai/ha",87%
same,SCPJU (% Control) Obs,"[4]; 7 DAA, penoxsulam 5 grams ai/ha",40%
same,SCPJU (% Control) Obs,"[4]; 7 DAA, penoxsulam 20 grams ai/ha",92%
same,SCPJU (% Control) Obs,[4]; [5],0%
2-amino-4-(hydroxymethylphosphinyl)butanoic acid [Glufosinate-ammonium],MOOVA (% Control) Obs,[1]; glufosinate-ammonium 18 grams ai/ha,0%
same,MOOVA (% Control) Obs,[1]; [6],0%
same,CYPDI (% Control) Obs,[2]; glufosinate-ammonium 35 grams ai/ha,0%
same,CYPDI (% Control) Obs,[2]; [6],0%
same,CYPDI (% Control) Obs,[2]; glufosinate-ammonium 140 grams ai/ha,0%
same,ECHCG (% Control) Obs,"[3]; 14 DAA, glufosinate-ammonium 35 grams ai/ha",0%
same,ECHCG (% Control) Obs,"[3]; 14 DAA, glufosinate-ammonium 70 grams ai/ha",0%
same,ECHCG (% Control) Obs,"[3]; 14 DAA, glufosinate-ammonium 140 grams ai/ha",27%
same,ECHCG (% Control) Obs,[3]; [7],0%
same,ECHCG (% Control) Obs,[3]; [8],0%
same,ECHCG (% Control) Obs,[3]; [9],0%
same,ECHCG (% Control) Obs,"[3]; 28 DAA, glufosinate-ammonium 280 grams ai/ha",13%
same,SCPJU (% Control) Obs,"[4]; 7 DAA, glufosinate-ammonium 18 grams ai/ha",0%
same,SCPJU (% Control) Obs,"[4]; 7 DAA, glufosinate-ammonium 35 grams ai/ha",0%
same,SCPJU (% Control) Obs,"[4]; 7 DAA, glufosinate-ammonium 70 grams ai/ha",0%
same,SCPJU (% Control) Obs,"[4]; 7 DAA, glufosinate-ammonium 140 grams ai/ha",0%
same,SCPJU (% Control) Obs,"[4]; 28 DAA, glufosinate-ammonium 18 grams ai/ha",0%
same,SCPJU (% Control) Obs,[4]; [7],0%
same,SCPJU (% Control) Obs,[4]; [8],0%
same,SCPJU (% Control) Obs,[4]; [9],0%
